# Several values for one entry are separate records, joined by “and”; a condition that tells them apart may be missing. Equal entries are not always repeated.
# Experiments:
# Assay type in all cases: cell-based
# [1] = target: T1, BLK (Homo sapiens, UniProt P51451); experiment: BLK levels by Western blot in Ramos cells
# T1 construct: endogenous in cells; host or cells: Ramos
# Protocol: (§1) Cells were washed with PBS and lysed in lysis buffer (50 mM Tris-HCl, pH 7.4, 150 mM NaCl, 1% Triton X-100, 1% sodium deoxycholate, 0.1% SDS) with complete protease inhibitor cocktail (Roche, 11836170001) for 30 min on ice. For Ramos cells, cell pellets were lysed in lysis buffer (50 mM Tris-HCl, pH 8, 150 mM NaCl, 1% NP-40, 0.5% sodium deoxycholate) with complete protease inhibitor cocktail. After centrifugation at 16,000 x g, the supernatant was transferred into a new tube and the protein concentration was determined by DC protein assay (BIO-RAD, 5000116). Proteins were separated by SDS-PAGE and transferred to a PVDF membrane (Thermo scientific, 0.45 μm, 88518). For PDEδ, BRD2, GAPDH, BRD4, Vinculin and BTK, the membranes were blocked with Intercept® Blocking Buffer (LI-COR Biosciences, 927-70001) at room temperature for 1 h. The primary antibodies for these proteins were diluted with Intercept® Blocking Buffer (1:500 for PDEδ, 1:3000 for Vinculin, and 1:1000 for other proteins) and incubated with the membranes overnight at 4 °C. Membranes were washed with PBS + 0.1% Tween 20 (PBS-T) five times and incubated with secondary antibodies conjugated to IRDye® Infrared Fluorescent Dyes (1:5000, LI-COR Biosciences) at room temperature for 1 h with protection from light. After washing the membrane, signals were visualized using the ChemiDoc MP Imaging System (BIO-RAD Laboratories). For detection of LC3B, BRD3, BLK, DCAF11, DDB1 RBX1, FIP200, V5- and FLAG-Tag the membranes were blocked with 5% milk in PBS-T at room temperature for 1 h. The primary antibodies for these proteins were diluted in 5% milk in PBS-T buffer (1:200 for BRD3, 1:1000 for other proteins) and incubated with the membranes overnight at 4 °C. Membranes were washed with PBS-T five times and incubated with HRP secondary antibodies (1:1500) at room temperature for 1 h. After washing the membrane, protein detection was performed using Western blotting detection reagent (Thermo Scientific, 34095) and the ChemiDoc MP Imaging System (BIO-RAD). Relative band intensities were quantified using Image Lab (BIO-RAD).
# [2] = target: T2, BTK (Homo sapiens, UniProt Q06187); experiment: BTK levels by Western blot in Ramos cells; conditions: 6 h
# T2 construct: endogenous in cells; host or cells: Ramos
# Protocol: as §1, with “After washing the membrane, signals were visualized using the ChemiDoc MP Imaging System (BIO-RAD Laboratories). For detection of LC3B, BRD3, BLK, DCAF11, DDB1 RBX1, FIP200, V5- and FLAG-Tag the membranes were blocked with 5% milk in PBS-T at room temperature for 1 h. The primary antibodies for these proteins were diluted in 5% milk in PBS-T buffer (1:200 for BRD3, 1:1000 for other proteins) and incubated with the membranes overnight at 4 °C. Membranes were washed with PBS-T five times and incubated with HRP secondary antibodies (1:1500) at room temperature for 1 h. After washing the membrane, protein detection was performed using Western blotting detection reagent (Thermo Scientific, 34095) and the ChemiDoc MP Imaging System (BIO-RAD).” left out
# [3] = target: BRD2 (Homo sapiens, UniProt P25440); experiment: BRD2 levels by Western blot in Hep G2 and MDA-MB-231 cells (incl. RNA interference); design: endogenous in cells; host or cells: Hep G2; MDA-MB-231; conditions: Hep G2 cells; 30 μM 15 for 1 h, then 10 μM 9 for 4 h
# Protocol: as §1
# [4] = Cell viability assay (CellTiter-Glo) in Jurkat cells; conditions: human, Jurkat cells
# Protocol: (§2) Jurkat cells (3 × 10^3) and Hep G2 cells (3.5 × 10^3) were seeded in 96-well plates in 100 μL culture medium. Cells were treated with compounds dissolved in 50 μl medium at the indicated concentration for 72 h, at the same time, one plate of cells without compounds treatment was used for the cell count at time zero. After adding 40 μl of CellTiter-Glo® reagent (Promega, G7571) to each well for 10 min at room temperature, the luminescence was measured on a Spark® Multimode Microplate Reader (Tecan). The data was analyzed by the GraphPad Prism 9.0.
# [5] = system: Jurkat cells; experiment: as above; conditions: for Relative cell viability (%): Fig. 4k; for Cell viability (%) relative to DMSO: individual replicates, Supplementary Fig. 7g
# Protocol: as §2
# [6] = system: Hep G2 cells; experiment: Cell viability assay (CellTiter-Glo) in Hep G2 cells; conditions: Homo sapiens, HepG2, 72 h
# Protocol: as §2
# T1 sequence (P51451 whole entry): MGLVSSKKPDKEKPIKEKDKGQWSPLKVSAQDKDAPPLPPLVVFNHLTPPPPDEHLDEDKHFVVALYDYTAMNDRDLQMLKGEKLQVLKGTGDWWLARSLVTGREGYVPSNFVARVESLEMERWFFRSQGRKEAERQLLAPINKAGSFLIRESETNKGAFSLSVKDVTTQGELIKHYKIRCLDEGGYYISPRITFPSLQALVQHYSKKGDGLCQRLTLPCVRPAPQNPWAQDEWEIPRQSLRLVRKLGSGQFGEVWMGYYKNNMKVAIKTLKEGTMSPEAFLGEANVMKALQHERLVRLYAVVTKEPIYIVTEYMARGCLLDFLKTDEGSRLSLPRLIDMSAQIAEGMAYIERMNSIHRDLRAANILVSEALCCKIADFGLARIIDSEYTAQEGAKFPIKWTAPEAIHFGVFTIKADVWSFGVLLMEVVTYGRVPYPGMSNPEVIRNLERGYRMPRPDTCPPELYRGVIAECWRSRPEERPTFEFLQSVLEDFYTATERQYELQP
# Chain of BRD2 (P25440 whole entry): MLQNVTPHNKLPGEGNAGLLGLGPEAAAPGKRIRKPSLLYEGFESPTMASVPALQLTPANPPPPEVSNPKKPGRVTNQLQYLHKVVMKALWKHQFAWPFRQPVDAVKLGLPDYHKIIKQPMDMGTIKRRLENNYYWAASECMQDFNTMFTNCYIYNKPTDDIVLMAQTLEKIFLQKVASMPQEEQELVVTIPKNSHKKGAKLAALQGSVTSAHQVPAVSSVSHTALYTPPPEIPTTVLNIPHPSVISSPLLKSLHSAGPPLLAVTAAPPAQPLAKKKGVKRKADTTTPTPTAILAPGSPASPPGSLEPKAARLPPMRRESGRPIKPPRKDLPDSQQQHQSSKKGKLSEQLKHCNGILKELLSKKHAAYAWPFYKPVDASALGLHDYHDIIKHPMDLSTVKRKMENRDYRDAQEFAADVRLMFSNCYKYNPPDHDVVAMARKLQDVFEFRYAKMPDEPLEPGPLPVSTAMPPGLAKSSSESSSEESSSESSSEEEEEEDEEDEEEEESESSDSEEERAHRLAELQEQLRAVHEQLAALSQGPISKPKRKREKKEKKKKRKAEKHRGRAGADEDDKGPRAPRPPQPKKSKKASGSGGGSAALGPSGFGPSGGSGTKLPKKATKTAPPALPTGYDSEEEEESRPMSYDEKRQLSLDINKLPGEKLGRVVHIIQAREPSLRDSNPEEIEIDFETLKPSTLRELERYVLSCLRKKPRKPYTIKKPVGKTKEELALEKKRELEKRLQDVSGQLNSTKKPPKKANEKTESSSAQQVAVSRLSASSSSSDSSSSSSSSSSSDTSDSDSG
# T2 sequence (Q06187 whole entry): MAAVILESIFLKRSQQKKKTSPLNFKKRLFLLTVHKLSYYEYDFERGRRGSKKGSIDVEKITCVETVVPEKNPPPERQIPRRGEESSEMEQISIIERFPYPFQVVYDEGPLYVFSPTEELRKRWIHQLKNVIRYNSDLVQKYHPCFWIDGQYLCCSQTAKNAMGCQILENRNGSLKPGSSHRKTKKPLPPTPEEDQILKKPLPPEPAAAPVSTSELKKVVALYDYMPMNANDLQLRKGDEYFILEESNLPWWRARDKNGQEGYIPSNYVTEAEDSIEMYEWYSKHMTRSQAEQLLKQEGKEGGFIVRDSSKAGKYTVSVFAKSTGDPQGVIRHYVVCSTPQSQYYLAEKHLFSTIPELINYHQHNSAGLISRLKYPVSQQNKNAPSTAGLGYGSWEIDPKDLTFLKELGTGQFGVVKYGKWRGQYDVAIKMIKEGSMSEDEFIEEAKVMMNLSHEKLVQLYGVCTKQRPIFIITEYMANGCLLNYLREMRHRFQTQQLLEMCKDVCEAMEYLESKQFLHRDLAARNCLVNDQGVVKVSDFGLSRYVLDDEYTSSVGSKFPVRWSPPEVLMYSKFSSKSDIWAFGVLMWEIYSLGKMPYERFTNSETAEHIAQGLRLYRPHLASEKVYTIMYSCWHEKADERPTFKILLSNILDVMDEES
compound,measurement,setting,value
Nc1ncnc2c1c(-c1ccc(Oc3ccccc3)cc1)nn2C1CCN(CC(=O)NCCOCCOCCOCCOCCNC(=O)COc2c(Br)cc(/C=C3\C(=O)Nc4ccc(Br)cc43)cc2Br)CC1 [Compound 13],BLK/Vinculin intensity (relative to DMSO control group),"[1]; 3 μM, 6 h, Fig. 2g",37.145 and 35.6045 and 46.4487
same,BLK/Vinculin intensity (relative to DMSO control group),"[1]; 10 μM, 6 h, Fig. 2g",21.4399 and 23.7367 and 36.6727
same,BLK/Vinculin intensity (relative to DMSO control group),"[1]; 30 μM, 6 h, Fig. 2g",37.0963 and 39.3424 and 67.6199
same,reduction of BLK levels,"[1]; Ramos cells, 6 h",70%
same,BLK/Vinculin intensity (relative to DMSO control group),"[1]; Ramos cells, pretreated CFZ 1 μM 40 min, then 10 μM, 6h, Fig. 2h",73.6122 and 85.1867 and 106.763
same,BLK/Vinculin intensity (relative to DMSO control group),"[1]; Ramos cells, pretreated CQ 50 μM 40 min, then 10 μM, 6h, Fig. 2h",24.1946 and 36.2698 and 40.4347
same,BLK/Vinculin intensity (relative to DMSO control group),"[1]; Ramos cells, pretreated MLN4924 1 μM 40 min, then 10 μM, 6h, Fig. 2h",110.614 and 82.1333 and 144.155
same,reduction of BTK levels,[2],50%
"COCCCN(C(=O)CCl)C(C(=O)NCc1ccccc1)c1ccc(Cl)c(Cl)c1 (stereo not shown) [Compound 15, reference compound]",effect of pretreatment on BRD2 degradation by 9,[3],impaired the degradation of BRD2
same,"viability at 72 h, 10 nmol/L","[4]; concentration 10 nmol/L, individual replicates, Supplementary Fig. 7g, read-out: Cell viability (%) relative to DMSO",90.9%
same,"viability at 72 h, 30 nmol/L","[4]; concentration 30 nmol/L, individual replicates, Supplementary Fig. 7g, read-out: Cell viability (%) relative to DMSO",89%
same,"viability at 72 h, 0.01 µM","[4]; 72 h, 10 nM, Fig. 4k, read-out: Relative cell viability (%)",98.2%
same,"viability at 72 h, 0.03 µM","[4]; 72 h, 30 nM, Fig. 4k, read-out: Relative cell viability (%)",95.3%
same,"viability at 72 h, 0.1 µM","[4]; 72 h, 100 nM, Fig. 4k, read-out: Relative cell viability (%)",97.5%
same,"viability at 72 h, 0.3 µM","[4]; 72 h, 300 nM, Fig. 4k, read-out: Relative cell viability (%)",89.8%
same,"viability at 72 h, 1 µM","[4]; 72 h, 1000 nM, Fig. 4k, read-out: Relative cell viability (%)",69.4%
same,GI50,"[5]; Homo sapiens, Jurkat cells, 72 h",1.7 ± 0.2 µM
same,Relative cell viability (%),"[5]; Jurkat cells, 72 h, 10 nM, 0.01 µM",107.976% and 98.062%
same,Relative cell viability (%),"[5]; Jurkat cells, 72 h, 30 nM, 0.03 µM",111.548% and 108.416%
same,Relative cell viability (%),"[5]; Jurkat cells, 72 h, 100 nM, 0.1 µM",104.746% and 97.0657%
same,Relative cell viability (%),"[5]; Jurkat cells, 72 h, 300 nM, 0.3 µM",101.886% and 95.5624%
same,Relative cell viability (%),"[5]; Jurkat cells, 72 h, 1000 nM, 1 µM",76.2485% and 79.6366%
same,Relative cell viability (%),"[5]; Jurkat cells, 72 h, 3000 nM, 3 µM",-0.04609% and 0.01061% and 0.06492%
same,Relative cell viability (%),"[5]; Jurkat cells, 72 h, 10000 nM, 10 µM",-0.2034% and -0.1473% and -0.1406%
same,Relative cell viability (%),"[5]; Jurkat cells, 72 h, 30000 nM, 30 µM",-0.2515% and -0.2135% and -0.2133%
same,Cell viability (%) relative to DMSO,[5]; concentration 10 nmol/L,93.1923% and 103.02%
same,Cell viability (%) relative to DMSO,[5]; concentration 30 nmol/L,89.995% and 103.027%
same,Cell viability (%) relative to DMSO,[5]; concentration 100 nmol/L,81.9055% and 90.259% and 101.913%
same,Cell viability (%) relative to DMSO,[5]; concentration 300 nmol/L,82.6491% and 87.803% and 104.249%
same,Cell viability (%) relative to DMSO,[5]; concentration 1000 nmol/L,80.0935% and 85.5797% and 108.086%
same,Cell viability (%) relative to DMSO,[5]; concentration 3000 nmol/L,49.5057% and 68.1876% and 85.0918%
same,Cell viability (%) relative to DMSO,[5]; concentration 10000 nmol/L,0.002496% and -0.07521% and -0.05875%
same,Cell viability (%) relative to DMSO,[5]; concentration 30000 nmol/L,-0.1172% and -0.221% and -0.2298%
same,GI50,[6],6.5 ± 1.8 µM

# From PMC10689823, “Discovery of a Drug-like, Natural Product-Inspired DCAF11 Ligand Chemotype” (Nature Communications, 2023)
